Consider 32 compounds from patent US20190071416A1, “COMPOUNDS FOR TREATMENT OF CANCER AND EPIGENETICS” (Agency For Science, Technology and Research, priority 2015, published 2019).

SMILES strings stand for the structures.

A word on the IC50: it is the concentration needed to halve the response being measured.

In this experiment the target is T1, SMYD3 (Homo sapiens, UniProt Q9H7B4).
T1 sequence (Q9H7B4 1-428): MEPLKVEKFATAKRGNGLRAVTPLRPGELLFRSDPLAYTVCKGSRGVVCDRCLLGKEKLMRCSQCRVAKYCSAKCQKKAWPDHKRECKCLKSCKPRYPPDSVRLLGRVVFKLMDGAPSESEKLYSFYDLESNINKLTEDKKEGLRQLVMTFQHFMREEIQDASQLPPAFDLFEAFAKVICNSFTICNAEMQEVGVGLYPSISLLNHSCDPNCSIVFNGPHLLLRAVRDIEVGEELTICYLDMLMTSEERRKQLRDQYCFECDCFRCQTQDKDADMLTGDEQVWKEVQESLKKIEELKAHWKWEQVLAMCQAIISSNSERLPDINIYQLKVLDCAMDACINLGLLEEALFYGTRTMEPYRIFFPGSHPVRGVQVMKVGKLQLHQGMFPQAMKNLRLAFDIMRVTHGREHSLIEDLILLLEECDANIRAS
Briefly: SMYD3 biochemical assay (MTase-Glo, MAP3K2 peptide substrate). As to conditions: Table 3; MTase assay, MAP3K2 peptide substrate; read-out: IC50. A digest of the protocol:
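Luminescent readout of SAH production (coupled SAH→ATP conversion, MTase-Glo) after SMYD3 reacted 30 min at room temperature with 1.0 µM SAM and 10 µM MAP3K2 peptide, both final. Non-linear regression gave IC50 values.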

Consider `CCCOC(=O)N1CCN(C(=O)c2ccc3c(Cl)c4c(nc3c2)CCCC4)C(C(F)(F)F)C1` (centres unmarked) [A064, Propyl 4-(9-chloro-5,6,7,8-tetrahydroacridine-3-carbonyl)-3-(trifluoromethyl)piperazine-1-carboxylate], for which the IC50 came to 700 nM.
Take `CCCOC(=O)N1CCN(C(=O)c2ccc3c(Cl)cc(-c4ccc5cn(C)nc5c4)nc3c2)CC1` [B196, Propyl 4-(4-chloro-2-(2-methyl-2H-indazol-6-yl)quinoline-7-carbonyl)piperazine-1-carboxylate]: the IC50 amounted to 56 nM.
Regarding `CCCOC(=O)N1CCN(C(=O)c2ccc3c(Cl)cc(-c4ccc(C(C)(C)CN(C)C)cc4)nc3c2)CC1` [B287, Propyl 4-(4-chloro-2-(4-(1-(dimethylamino)-2-methylpropan-2-yl)phenyl)quinoline-7-carbonyl)piperazine-1-carboxylate], the half-maximal inhibitory concentration (IC50) is 130 nM.
The result for `CCCOC(=O)N1CCN(C(=O)c2ccc3c(Cl)cc(-c4ccc5c(ccn5C)c4)nc3c2)CC1` [B140, Propyl 4-(4-chloro-2-(1-methyl-1H-indo1-5-yl)quinoline-7-carbonyl)piperazine-1-carboxylate] reads 350 nM.
On to `CCCOC(=O)N1CCN(C(=O)c2ccc3c(Cl)cc(-c4ccc(C)cc4)nc3c2)C[C@H]1C` [B052, Propyl (R)-4-(4-chloro-2-(p-tolyl)quinoline-7-carbonyl)-2-methylpiperazine-1-carboxylate], for which the IC50 stood at 770 nM.
`CCCOC(=O)N1CCN(C(=O)c2ccc3c(Cl)cc(-c4ccc(O)cc4)nc3c2)[C@@H](C)C1` [B160, Propyl (S)-4-(4-chloro-2-(4-hydroxyphenyl)quinoline-7-carbonyl)-3-methylpiperazine-1-carboxylate]: the 50% inhibitory concentration (IC50) is 150 nM.
For `CCCOC(=O)N1CCN(C(=O)c2ccc3c(Cl)c(C)c(-c4cccc([N+](=O)[O-])c4)nc3c2)CC1` [B043, Propyl 4-(4-chloro-3-methyl-2-(3-nitrophenyl)quinoline-7-carbonyl)piperazine-1-carboxylate] the value was 2400 nM; for `CCCOC(=O)N1CCN(C(=O)c2ccc3c(Cl)cc(-c4ccccc4C)nc3c2)CC1` [B012, Propyl 4-(4-chloro-2-(o-tolyl)quinoline-7-carbonyl)piperazine-1-carboxylate], 2900 nM; for `CCCOC(=O)N1CCN(C(=O)c2ccc3c(Cl)c(C)c(-c4ccccc4)nc3c2)[C@H](C)C1` [B017, Propyl (R)-4-(4-chloro-3-methyl-2-phenylquinoline-7-carbonyl)-3-methylpiperazine-1-carboxylate], 300 nM.
Consider `CCCOC(=O)N1CCN(C(=O)c2ccc3c(Cl)cc(-c4ccc(CNC)cc4)nc3c2)C[C@H]1C` [B119, Propyl (R)-4-(4-chloro-2-(4-((methylamino)methyl)phenyl)quinoline-7-carbonyl)-2-methylpiperazine-1-carboxylate], for which the IC50 is 42 nM.
Consider `CCCOC(=O)N1CCN(C(=O)c2ccc3c(Cl)cc(-c4cnn(C5CCCC5)c4)nc3c2)C[C@@H]1C` [B279, Propyl (S)-4-(4-chloro-2-(1-cyclopentyl-1H-pyrazol-4-yl)quinoline-7-carbonyl)-2-methylpiperazine-1-carboxylate], for which the IC50 stood at 20 nM.
`CCCOC(=O)N1CCN(C(=O)c2ccc3c(Cl)cc(-c4ccccc4)nc3c2)[C@H](C)C1` [B015, Propyl (R)-4-(4-chloro-2-phenylquinoline-7-carbonyl)-3-methylpiperazine-1-carboxylate]: the half-maximal inhibitory concentration (IC50) turned out to be 190 nM.
Consider `CCCOC(=O)N1CCN(C(=O)c2ccc3c(Cl)cc(-c4ccc(C#N)cc4)nc3c2)C[C@H]1C` [B062, Propyl (R)-4-(4-chloro-2-(4-cyanophenyl)quinoline-7-carbonyl)-2-methylpiperazine-1-carboxylate], for which the IC50 came out at 340 nM.
With `CCCOC(=O)N1CCN(C(=O)c2ccc3c(Cl)c4c(nc3c2)CCCC4C)CC1` (centres unmarked) [A023, Propyl 4-(9-chloro-8-methyl-5,6,7,8-tetrahydroacridine-3-carbonyl)piperazine-1-carboxylate], the IC50 stood at 5200 nM.
For `CCCOC(=O)N1CCN(C(=O)c2ccc3c(Cl)c4c(nc3c2)CC(c2ccc(F)cn2)CC4)[C@H](C)C1` (stereo partly drawn) [A106, Propyl (3R)-4-(9-chloro-6-(5-fluoropyridin-2-yl)-5,6,7,8-tetrahydroacridine-3-carbonyl)-3-methylpiperazine-1-carboxylate], the IC50 was 41 nM.
Regarding `CCCOC(=O)N1CCN(C(=O)c2ccc3c(Cl)c4c(nc3c2)CCCC4)CC1(C)C` [A035, Propyl 4-(9-chloro-5,6,7,8-tetrahydroacridine-3-carbonyl)-2,2-dimethylpiperazine-1-carboxylate], the IC50 worked out at 8200 nM.
With `CCCOC(=O)N1CCN(C(=O)c2ccc3c(Cl)cc(-c4ccc5oc(C)nc5c4)nc3c2)CC1` [B237, Propyl 4-(4-chloro-2-(2-methylbenzo[d]oxazol-5-yl)quinoline-7-carbonyl)piperazine-1-carboxylate], the IC50 stood at 200 nM.
In the case of `CCCOC(=O)N1CCN(C(=O)c2ccc3c(Cl)c4c(nc3c2)CC(c2ccc(F)cn2)CC4)C[C@H]1C` (stereo partly drawn) [A098, Propyl (2R)-4-(9-chloro-6-(5-fluoropyridin-2-yl)-5,6,7,8-tetrahydroacridine-3-carbonyl)-2-methylpiperazine-1-carboxylate], the IC50 turned out to be 150 nM.
In the case of `CCCOC(=O)N1CCN(C(=O)c2ccc3c(Cl)cc(-c4cnc5[nH]nc(C)c5c4)nc3c2)[C@@H](C)C1` [B200, Propyl (S)-4-(4-chloro-2-(3-methyl-1H-pyrazolo[3,4-b]pyridin-5-yl)quinoline-7-carbonyl)-3-methylpiperazine-1-carboxylate], the half-maximal inhibitory concentration (IC50) was found to be 1030 nM.
For the compound `CCCOC(=O)N1CCN(C(=O)c2ccc3c(Cl)cc(-c4cc(F)c(CN)c(F)c4)nc3c2)CC1` [B258, Propyl 4-(2-(4-(aminomethyl)-3,5-difluorophenyl)-4-chloroquinoline-7-carbonyl)piperazine-1-carboxylate], the IC50 was 850 nM.
With `CCCOC(=O)N1CCN(C(=O)c2ccc3c(Cl)cc(-c4ccc(C)c(CO)c4)nc3c2)CC1` [B159, Propyl 4-(4-chloro-2-(3-(hydroxymethyl)-4-methylphenyl)quinoline-7-carbonyl)piperazine-1-carboxylate], the IC50 came out at 120 nM.
For `C#CCC1CCc2c(nc3cc(C(=O)N4CCN(C(=O)OCCC)[C@H](C)C4)ccc3c2Cl)C1` (stereo partly drawn) [A142, Propyl (2R)-4-(9-chloro-6-(prop-2-yn-1-yl)-5,6,7,8-tetrahydroacridine-3-carbonyl)-2-methylpiperazine-1-carboxylate] the value was 420 nM; for `CCCOC(=O)N1CCN(C(=O)c2ccc3c(Cl)cc(-c4ccc(COCC)cc4)nc3c2)CC1` [B256, Propyl 4-(4-chloro-2-(4-(ethoxymethyl)phenyl)quinoline-7-carbonyl)piperazine-1-carboxylate], 500 nM.
As for `CCCOC(=O)N1CCN(C(=O)c2ccc3c(Cl)cc(-c4cnn(CC(F)(F)F)c4)nc3c2)C[C@@H]1C` [B276, Propyl (S)-4-(4-chloro-2-(1-(2,2,2-trifluoroethyl)-1H-pyrazol-4-yl)quinoline-7-carbonyl)-2-methylpiperazine-1-carboxylate], the IC50 stood at 22 nM.
With `CCCOC(=O)N1CCN(C(=O)c2ccc3c(Cl)cc(-c4ccc(OC)c(CN)c4)nc3c2)C[C@H]1C` [B107, Propyl (R)-4-(2-(3-(aminomethyl)-4-methoxyphenyl)-4-chloroquinoline-7-carbonyl)-2-methylpiperazine-1-carboxylate], the IC50 came to 76 nM.
`CCCOC(=O)N1C2CCCC1CN(C(=O)c1ccc3c(Cl)ccnc3c1)C2` [C007, Propyl 3-(4-chloroquinoline-7-carbonyl)-3,9-diazabicyclo[3.3.1]nonane-9-carboxylate]: the IC50 was found to be 550 nM.
Regarding `CCCOC(=O)N1CCN(C(=O)c2ccc3c(Cl)cc(-c4ccc(C(C)(C)CN)cc4)nc3c2)C[C@H]1C` [B282, Propyl (R)-4-(2-(4-(1-amino-2-methylpropan-2-yl)phenyl)-4-chloroquinoline-7-carbonyl)-2-methylpiperazine-1-carboxylate], the IC50 was 13 nM.
For `CCCOC(=O)N1CCN(C(=O)c2ccc3c(Cl)cc(-c4ccc(C#N)c(C)c4)nc3c2)CC1` [B101, Propyl 4-(4-chloro-2-(4-cyano-3-methylphenyl)quinoline-7-carbonyl)piperazine-1-carboxylate] the value was 1800 nM; for `CCCOC(=O)N1CCN(C(=O)c2ccc3c(Cl)c(C)c(-c4cccc(N)c4)nc3c2)CC1` [B044, Propyl 4-(2-(3-aminophenyl)-4-chloro-3-methylquinoline-7-carbonyl)piperazine-1-carboxylate], 45 nM.
Take `CCCOC(=O)N1CCN(C(=O)c2ccc3c(Cl)cc(-c4ccsc4)nc3c2)CC1` [B148, Propyl 4-(4-chloro-2-(thiophen-3-yl)quinoline-7-carbonyl)piperazine-1-carboxylate]: the IC50 was found to be 99 nM.
As to `CCCOC(=O)N1CCN(C(=O)c2ccc3c(Cl)cc(-c4ccnc(OC)c4)nc3c2)C[C@H]1C` [B131, Propyl (R)-4-(4-chloro-2-(2-methoxypyridin-4-yl)quinoline-7-carbonyl)-2-methylpiperazine-1-carboxylate], the IC50 was determined as 360 nM.
For `CCCOC(=O)N1CCN(C(=O)c2ccc3c(Cl)cc(-c4cc(F)cc(F)c4)nc3c2)CC1` [B048, Propyl 4-(4-chloro-2-(3,5-difluorophenyl)quinoline-7-carbonyl)piperazine-1-carboxylate] the value was 3000 nM.
